Results on 16 molecules are retold here after patent publication US7504226B2, “Methods relating to treatment of atherosclerosis” (Cambridge Theranostics Ltd., priority 2001, dated 2009).

“And” between values parts separate entries of the source, which are not always exact repeats. Equal entries are not always repeated. “Also recorded” adds a separate entry of the source. Where two headings read alike, the source gives them in different places. Marks after values point to notes of the source that are not given here.

The test system of data set [1] is anti-Chlamydia abzymes. The format is biochemical, human. On the set-up: key to In-vitro Inhibition: + = inhibition; − = no inhibition. Conditions: for In-vitro Inhibition: abzyme activity, metal chelators; for Anti-Abzyme activity: control 21.7.
Data set [2] has as its system anti-Chlamydia abzymes. The format is in vivo, human. Conditions: for Anti-Chlamydia abzyme activity: individual patients (last line: mean); for Anti-Chlamydia abzymes activity: Table 27 group summary; for individuals positive for abzymes / individuals positive for abzymes (fraction) / abzyme activity of individuals reporting taking aspirin: + aspirin.
For data set [3], the system named is anti-Chlamydia IgG. Format: in vivo, human. Conditions: immuno-fluorescent assay, group summary.
Data set [4] deals with patients with ischaemic heart disease. Nature of the data set: Severity of angina pectoris by modified Rose-Blackburn Questionnaire. Format: in vivo, human. On the set-up: Score by modified Rose-Blackburn Questionnaire / Rose Blackthorn Score Day 0: scale not given here. Conditions: for Score by modified Rose-Blackburn Questionnaire: individual patients (last line of each group: mean). The source says:
The progression of the clinical condition of the patients was monitored by the use of the modified Bruce Protocol for treadmill exercise/stress ECG testing and on the Rose-Blackburn Questionnaire (Cardiovascular Survey Methods. WHO, Geneva, 1968).

Data set [5] deals with patients with angina. The data set can be described thus: Clinical condition of angina patients treated with anti-microbial agent. Conditions: for Clinical condition: individual patients; for tablets of nitroglycerine daily: patient 5. The format is in vivo, human.
For data set [6] the following is noted: human, in vivo.
The subject of data set [7] is lesion IgG. The format is biochemical, human.
The subject of data set [8] is anti-Chlamydia abzymes. The format is biochemical, human.
The mark [9] stands for this setting: IHD patients negative for anti-Chlamydia IgG, individual patients.
Setting [10] is: Chlamydia treated with 1% detergents or 10% solution of DMSO.

For the molecule `[N-]=[N+]=[N-].[Na+]` [NaN3], in data set [1], the “Result (inhibition of abzymes)” value is “Positive”.

Take `CC[C@H]1OC(=O)[C@H](C)[C@@H](O[C@H]2C[C@@](C)(OC)[C@@H](O)[C@H](C)O2)[C@H](C)[C@@H](O[C@@H]2O[C@H](C)C[C@H](N(C)C)[C@H]2O)[C@](C)(O)C[C@@H](C)CN(C)[C@H](C)[C@@H](O)[C@]1(C)O` [Azithromycin]: the “Abzyme activity Day 0” value in data set [2] (setting [9]) is 15 and 90 and 80 and 40. Further, in data set [2] (setting [9]), the “Abzyme activity Day 60” value was 6.7 (2×) and 3.3 and 0. The Anti-Chlamydia abzyme activity is 60 μM MDA/ml and 0 μM MDA/ml (3×) and 8.3 μM MDA/ml and 6.7 μM MDA/ml (3×) and 33 μM MDA/ml and 75 μM MDA/ml and 19.6 μM MDA/ml in data set [2] (Table 15, 15 days after the start of the treatment); 37 μM MDA/ml and 0 μM MDA/ml (3×) and 28 μM MDA/ml and 3.3 μM MDA/ml (2×) and 10 μM MDA/ml and 78 μM MDA/ml and 17.7 μM MDA/ml in data set [2] (Table 15, 30 days after the start of the treatment); 40 μM MDA/ml (2×) and 50 μM MDA/ml and 15 μM MDA/ml and 10 μM MDA/ml and 35 μM MDA/ml and 85 μM MDA/ml and 30 μM MDA/ml (2×) and 45.9 μM MDA/ml and 90 μM MDA/ml and 80 μM MDA/ml in data set [2] (Table 15, stable angina, 500 mg once per day, before treatment); 90 μM MDA/ml and 80 μM MDA/ml and 40 μM MDA/ml (2×) and 50 μM MDA/ml and 15 μM MDA/ml and 28 μM MDA/ml and 35 μM MDA/ml and 85 μM MDA/ml and 30 μM MDA/ml (2×) and 47.5 μM MDA/ml in data set [2] (Therapy Group A, IHD, 500 mg daily, before treatment); 6.7 μM MDA/ml (3×) and 0 μM MDA/ml (3×) and 60* μM MDA/ml and 8.3 μM MDA/ml and 33 μM MDA/ml and 75* μM MDA/ml and 52* μM MDA/ml and 22.5 μM MDA/ml in data set [2] (Therapy Group A, 15 days after the start of treatment); 78** μM MDA/ml and 0 μM MDA/ml (3×) and 37* μM MDA/ml and 28** μM MDA/ml and 3.3 μM MDA/ml (2×) and 10 μM MDA/ml (2×) and 78* μM MDA/ml and 22.5 μM MDA/ml in data set [2] (Therapy Group A, 30 days after the start of treatment). The Anti-Chlamydia abzyme activity in data set [2] (Therapy Group A, 45 days after the start of treatment) was 17 μM MDA/ml and 0 μM MDA/ml (5×) and 20* μM MDA/ml and 43* μM MDA/ml and 3.3 μM MDA/ml (2×) and 5.0 μM MDA/ml and 7.4 μM MDA/ml; in data set [2] (Therapy Group A, 60 days after the start of treatment), 3.3 μM MDA/ml and 6.7 μM MDA/ml (2×) and 0 μM MDA/ml (7×) and 0.5 μM MDA/ml and 1.6 μM MDA/ml. Further, the results for the Anti-Chlamydia abzymes activity in data set [2] (60 days after treatment) and in data set [2] (before treatment) were 1.6 ± 0.89 ^ μM/MDA/ml and 47.5 ± 8.96 μM/MDA/ml, respectively. Moreover, the “Anti-Chlamydia IgG” value in data set [3] (60 days after treatment) is 0 (titers)^−1; in data set [3] (before treatment), 43.6 (titers)^−1. For the same molecule, in data set [4] (setting [9]), the “Rose Blackthorn Score Day 0” value is 21 and 22 and 12 and 19. The “Clinical Status modified Rose G., Blackburn H. Questionnaire” value in data set [4] (group summary, before treatment) is given as 19.4 ± 1.79. The “Score by modified Rose-Blackburn Questionnaire” value in data set [4] (60 days after start of the treatment) was 19 and 10 and 13 and 16 and 18 and 15 (2×) and 8 and 11 and 17 (2×); in data set [4] (before treatment), 22 and 12 and 19 and 23 and 21 and 25 (3×) and 16 and 10 and 15 and 19.4 ± 1.79. In addition, the Clinical condition result was “angina class II;; also recorded: Stable condition;” in data set [5] (after 15 days of treatment) and “angina class III;; also recorded: Unstable angina;” in data set [5] (before treatment). Besides, the “tablets of nitroglycerine daily” value is on record as 5 tablets of nitroglycerine in data set [5] (after 15 days of treatment) and 10 tablets of in data set [5] (before treatment). The adverse reactions result in data set [6] is “No adverse reactions”.

Consider `O=C[O-].[Na+]` [sodium formate], for which the “Level of MDA production by 0.82 μg of lesion IgG” value (shortened to “Level of MDA production”) in data set [7] (LDL 480 μg of protein, +0.1 M agent, control 0.49 ± 0.023) was determined as 0 µM.

With `O=C(O)c1ccccc1` [benzoic acid], the “Level of MDA production” value in data set [7] was determined as 0 µM.

“polyoxyethylene Octyl phenyl ether [TRITON X-100]”: in data set [8], the “development of lipid oxidation reaction” value is given as “completely abrogated” and the “oxidation of the lipids in the bacteria by the extracted abzymes” value is “abolished”.

`CCCCCCCCCCCCOS(=O)(=O)[O-].[Na+]` [SDS]: in data set [8], the “lipid oxidising reaction in the test system” value (shortened to “lipid oxidising reaction”) was “no lipid oxidising reaction”.

`O=C(O)c1ccccn1` [Picolinic acid]: the “Result (inhibition of abzymes)” value in data set [1] (10 μM of each agent) was “Positive”. In addition, the “In-vitro Inhibition” value in data set [1] is “+”.

As to `O=[N+]([O-])OCC(CO[N+](=O)[O-])O[N+](=O)[O-]` [Glyceryl Trinitrate], the Anti-Abzyme activity in data set [1] (4.4 μM), in data set [1] (22 μM), in data set [1] (44 μM) and in data set [1] (220 μM) was 0 μM MDA/ml throughout.

For `N.N.O=S(=O)(O)O` [ammonium sulphate], the “lipid oxidising reaction” value in data set [8] is given as “no lipid oxidising reaction”.

For `O=[N+]([O-])O[C@H]1CO[C@H]2[C@@H]1OC[C@H]2O[N+](=O)[O-]` [Isosorbide Dinitrate], the Anti-Abzyme activity in data set [1] (42 μM) and in data set [1] (211 μM) was 0 μM MDA/ml each time.

`C=O` [formalin]: the “lipid oxidising reaction” value in data set [8] is “no lipid oxidising reaction”.

With `C[S+](C)[O-]` [DMSO], the “Level of MDA production” value in data set [7] (LDL 480 μg of protein, +1% agent, control 0.49 ± 0.023) was determined as 0 µM. For the same molecule, the “development of lipid oxidation reaction” value in data set [8] (setting [10]) is listed as “completely abrogated”.

For `CC(C)(S)[C@@H](N)C(=O)O` [Penicillamine], the “Result (inhibition of abzymes)” value in data set [1] (10 μM of each agent) is reported as “Positive”. Further, the “In-vitro Inhibition” value in data set [1] was “+”.

With “octylphenoxypoly(ethyleneoxy)ethanol [IGEPAL CA-630]”, the “development of lipid oxidation reaction” value in data set [8] (setting [10]) was “completely abrogated”. The “oxidation of the lipids in the bacteria by the extracted abzymes” value in data set [8] (Chlamydia treated with non-ionic detergent) was “abolished”.

As to `CC(=O)Oc1ccccc1C(=O)O` [Aspirin, acetylsalicylic acid], in data set [1] (10 μM of each agent), the “Result (inhibition of abzymes)” value was “Positive”. In addition, the “In-vitro Inhibition” value in data set [1] is given as “+”. For the same molecule, the Anti-Chlamydia abzyme activity was 103 μM MDA/ml and 253 μM MDA/ml and 178 μM MDA/ml in data set [2] (Therapy Group D, IHD, aspirin 250 mg daily, before treatment); 63 μM MDA/ml and 103 μM MDA/ml and 83.2 μM MDA/ml in data set [2] (Therapy Group D, 60 days after the start of treatment). Also, the “Level of activity of anti-Chlamydia abzymes” value in data set [2] (individual CHD patients, 7 days after starting to take 250 mg of aspirin daily) was “undetectably low level and 20 μM MDA/ml and 0 μM MDA/ml”; in data set [2] (individual CHD patients, before taking aspirin) it was 100 μM MDA/ml and 45 μM MDA/ml (2×); in data set [2] (patient F, Silent Myocardial Ischaemia, aspirin intake 250 mg daily), 10 μM MDA/ml; in data set [2] (patient F, 7 days after re-starting to take 250 mg aspirin daily), 20 μM MDA/ml; in data set [2] (patient F, after stopping taking aspirin for 7 days), 65 μM MDA/ml. Also, the “inhibition of the abzyme activity” value in data set [2] (one CHD patient, after a week of 250 mg daily) came to 5 fold. In addition, the “individuals positive for abzymes” value in data set [2] (stable angina class I) turned out to be 17%; in data set [2] (stable angina class II), 27%; in data set [2] (stable angina class III) it was 60%; in data set [2] (unstable angina IV), 86%. In addition, the “individuals positive for abzymes (fraction)” value in data set [2] (stable angina class I) is given as 1/6; in data set [2] (stable angina class II), 4/15; in data set [2] (stable angina class III), 6/10; in data set [2] (unstable angina IV), 6/7. Besides, the “abzyme activity of individuals reporting taking aspirin” value is 0 (3×) and 10 and 10.0 and 5 and 45 in data set [2] (stable angina class I, individuals (r25: mean, n = 6)); 10 (2×) and 0 (4×) and 5 (4×) and 25 and 22.5 and 3.3 and 16.7 and 9.2 and 30 in data set [2] (stable angina class II, individuals (r25: mean, n = 15)); 0 (3×) and 5 and 35 and 15 and 30 and 105 and 25.5 and 20 and 45 in data set [2] (stable angina class III, individuals (r25: mean, n = 10)); 0 and 37 and 90 and 100 and 86.7 and 180 and 130 and 70 in data set [2] (unstable angina IV, individuals (r25: mean, n = 7)).

Turning to `O=C(O)CN(CCN(CC(=O)O)CC(=O)O)CCN(CC(=O)O)CC(=O)O` [DTPA], in data set [1] (10 μM of each agent), the “Result (inhibition of abzymes)” value is “Negative”. For the same molecule, the “In-vitro Inhibition” value in data set [1] is “−”.
